Data taken from patent US10022342B2, “Methods and compositions for treating multiple myeloma” (Ohio State Innovation Foundation, priority 2015, dated 2018).
pIC50: −log10 of the molar value.

Legend:
[1] = system: CD44 promoter region; assay: CD44 promoter luciferase reporter assay; type: cell-based, human; conditions: 0.2 μM, 24 hour; MM.1S, U266 and 293T
Protocol: (§1) To address the molecular mechanism(s) responsible for downregulation of CD44 gene, the potential role of one or more cis regulatory regions was considered. […] The CD44 3′UTR element was subcloned downstream from the SV40 promoter-driven luciferase gene and transiently transfected the resulting reporter plasmid into MM.1S cells. Incubation of these cells with 0.2 μM AR-42 for 24 hours decreased luciferase activity detecting the activity of the CD44 3′UTR element by 35% as compared to untreated cells (FIG. 5A).
Human CD44 promoter-luciferase reporter gene (CD44P pGL3) was obtained from Addgene (Plasmid 19122). The 3′UTR of CD44 was PCR amplified using following primers:
Hela and 293T cells were transfected with 500 ng of 3′UTR-pGL3-control plasmid and 50 ng of Renilla luciferase expression construct (pRL-TK; Promega), using Lipofectamine 2000 (Invitrogen). After 24 hrs cells were lysed and tested by Dual Luciferase Assay (Promega), according to the manufacturer's instructions. MM.1S cells were transfected with 1.8 μg of pGL3-based luciferase vector and 200 ng of pRL-TK, harvested 24 hrs later and assayed as above.

[2] = system: MM cells; assay: IC50 concentrations of HDAC inhibitors in MM cells; type: cell-based; conditions: Homo sapiens
[3] = system: miR-9-5p; assay: miR-9-5p expression by stem loop qRT-PCR; type: cell-based, human; conditions: 24 hours, dose dependent, vs control
Protocol: 51 miRNAs were differentially expressed between the two groups.
Quantitative real time-PCR (qRT-PCR) was performed with the TaqMan method (Applied Biosystems), according to the manufacturer's instructions, and analyzed with the 7900HT Sequence Detection System (Applied Biosystems). The appropriate TaqMan probes for mRNA, miRNA, and pri-miRNA quantification were purchased from Applied Biosystems, and all reactions were performed in triplicate. The following probes were used: hsa-miR-9-5p (000583), hsa-mir-9-1 (Hs03303201_pri), hsa-miR-9-2 (Hs03303202_pri), hsa-mir-9-3 (Hs03293595_pri), CD44 (Hs01075861_ml), IGF2BP3 (Hs00559907_g1). Simultaneous quantification of ornithine decarboxylase antizyme 1 (OAZ1), or GAPDH mRNAs were used as a reference for mRNA data normalization, while small endogenous nucleolar RNA U44/U48, or U6 were used for miRNA normalization. The relative expression levels were calculated by the comparative cycle threshold (Ct) method (User Bulletin #2; Applied Biosystems). Expression analyses of pre-miRNA was performed with SYBR green PCR master mix (Applied Biosystems) and normalized for U6 RNA. All primers used for amplification steps are listed in the Supplementary materials and methods.

[4] = system: CD44 3′UTR element; assay: CD44 3'UTR luciferase reporter assay in MM.1S cells; type: cell-based, human; conditions: 0.2 μM, 24 hours, vs untreated cells
Protocol: as §1
(Forward) 5′-gctagc[…]-3′ (SEQ ID NO: 1) and 5′- gctagc[…]-3′ (SEQ ID NO: 2) (engineered Nhel sites are in lower case), and the products were cloned into Xbal site downstream from the luciferase gene in pGL3-control vector (Promega). To generate IGF2BP3 luciferase reporter constructs, the 3′UTR was amplified by PCR using primers: (Forward) 5′-[…]-3′ (SEQ ID NO: 3) and (Reverse) 5′-[…]-3′ (SEQ ID NO: […]), and cloned into Xbal site of pGL3-control vector (Promega). Mutations in the miR-9-5p binding site of the IGF2BP3 3′UTR were introduced by the QuikChange Mutagenesis Kit (Stratagene) and the following primers:
Hela and 293T cells were transfected with 500 ng of 3′UTR-pGL3-control plasmid and 50 ng of Renilla luciferase expression construct (pRL-TK; Promega), using Lipofectamine 2000 (Invitrogen). […]

CC(C)[C@H](C(=O)Nc1ccc(C(=O)NO)cc1)c1ccccc1 [AR-42, (S)-N-hydroxy-4-(3-methyl-2-phenylbutanamido)benzamide]
activity of CD44 promoter region (luciferase) [1]: did not lower | pIC50 [2]: 6.70 | miR-9-5p expression levels [3]: increased | decrease of luciferase activity of the CD44 3′UTR element [4]: 35%
